Experimental data reported in US20150089682A1, “ALS Inhibitor Herbicide Tolerant B. Napus Mutants” (priority 2012, published 2015).

Columns and labels:
[1] = target: T1, Arabidopsis thaliana P197S-mutant ALS (Arabidopsis thaliana, UniProt P17597, E575Q/P197S); assay: biochemical; conditions: for Resistance Factor P197S: relative to WT, from measured pI50
T1 construct: vector-encoded N-terminal fusion of pET-32a(+) (Trx/His/S tag by own knowledge); made in house; host or cells: Escherichia coli AD494
Method: (§1) Bacteria were grown at 37° C. in LB-medium containing 100 mg/1 carbenicillin and 25 mg/1 canamycin, induced with 1 mM isopropyl-β-D-thiogalactopyranoside at an OD600 of 0.6, cultivated for 16 hours at 18° C. and harvested by centrifugation. Bacterial pellets were resusupended in 100 mM sodium phosphate buffer pH 7.0 containing 0.1 mM thiamine-pyrophosphate, 1 mM MgCl2, and 1 μM FAD at a concentration of 1 gram wet weight per 25 ml of buffer and disrupted by sonification. The crude protein extract obtained after centrifugation was used for ALS activity measurements.
(§2) Assays were initiated by adding enzyme and terminated after 75 min incubation at 30° C. by the addition to 40 μl 0.5 M H2SO4. […] Reaction velocities were tiffed to the Michalis-Menten equation with the XLFit curve fitting program.

[2] = target: T2, Arabidopsis thaliana S653N-mutant ALS (Arabidopsis thaliana, UniProt P17597, E575Q/S653N); assay: biochemical
T2 construct: vector-encoded N-terminal fusion of pET-32a(+) (Trx/His/S tag by own knowledge); made in house; host or cells: Escherichia coli AD494
Method: as §1, §2

[3] = target: T3, Arabidopsis thaliana W574L-mutant ALS (Arabidopsis thaliana, UniProt P17597, E575Q/W574L); assay: biochemical; conditions: for Resistance Factor W574L: relative to WT, from measured pI50
T3 construct: vector-encoded N-terminal fusion of pET-32a(+) (Trx/His/S tag by own knowledge); made in house; host or cells: Escherichia coli AD494
Method: as §1, §2

[4] = target: T4, Arabidopsis thaliana wild-type ALS (Arabidopsis thaliana, UniProt P17597, E575Q); assay: biochemical; conditions: measured; crude extract of E. coli expressed enzyme; read-out: pI50 WT (converted)
T4 construct: vector-encoded N-terminal fusion of pET-32a(+) (Trx/His/S tag by own knowledge); made in house; host or cells: Escherichia coli AD494
Method: as §1, §2

[5] = test system: spring oilseed rape homozygous for HETO108 and HETO121; assay: Herbicide tolerance in the field, visible phytotoxicity; assay type: in vivo, Brassica napus; conditions: HETO108-HETO121, field, 18 days after application, 0%=no phytotoxic effects, 100%=all plants killed
Excerpt: (§3) Seeds of spring oilseed rape homozygous for HETO108 and HETO121 were sown in a field according to typical practical agricultural methods. The registered spring oilseed rape variety ABILITY served as a comparison. All plants were cultivated up to BBCH stage 14 (four true leaves of the oilseed rape plants). Afterwards, the herbicides mentioned in table 2 have been applied to the oilseed rape plants by using specific spray equipment for small plot applications. The water amount used was 200 L/ha.

[6] = test system: spring oilseed rape variety ABILITY; assay: as above; assay type: in vivo, Brassica napus; conditions: ABILITY, field, 18 days after application, 0%=no phytotoxic effects, 100%=all plants killed
Excerpt: as §3

[7] = target: T5, mixture of P197S and W574L ALS enzymes (Arabidopsis thaliana, UniProt P17597); assay type: biochemical; conditions: for Resistance Factor P197S & W574L: relative to WT, calculated
T5 construct: crude E. coli extract was used
Method: as §2
(§4) To characterize the response of a mixture of two different ALS enzymes to a given ALS inhibitor the following assumptions were made: • a inhibition is competitive and reversible • b. in the absence of inhibitor, equal activities of the ALS (mutant) enzymes 1 and 2 are present
(§5) Using experimentally determined pI50-values for various ALS-inhibiting herbicides, enzyme activities at different inhibitor concentrations were calculated (see Theory) for each ALS enzyme. Total ALS activity at any given inhibitor concentration is the sum of the activity of (mutant) enzyme 1 and (mutant) enzyme 2. If the experimentally determined pI50-value was <4, pI50=3.0 was used for the calculations. If the calculated pI50-value was 3.0, the pI50 was redefined as <4.

[8] = target: T6, mixture of S653N and W574L ALS enzymes (Arabidopsis thaliana, UniProt P17597); assay type: biochemical; conditions: for Resistance Factor S653N & W574L: relative to WT, calculated
T6 construct: crude E. coli extract was used
Method: as §2, §4, §5

[9] = test system: ALS enzyme in leaves of wild-type Brassica lines; assay: ALS enzyme activity in leaves; assay type: biochemical, Brassica napus; conditions: wild-type leaves (row IV) compared with mutant lines (rows I-III), FIG. 3
Method: (§6) The inhibitory effect of ALS inhibiting herbicides on ALS enzymes encoded by the different mutant AHAS alleles was tested in leaf material essentially as described by Shimizu et al, 2008, Plant Physiol. 147:1976.

[10] = test system: ALS enzymes in leaves of Brassica lines homozygous for HETO108, HETO121 or both; assay: ALS enzyme activity in leaves; assay type: biochemical, Brassica napus; conditions: FIG. 3
Method: as §6

[11] = Brassica napus, topical, 432 h, AI dose rate 50 gai/ha, read-out: % phytotox
[12] = calculated for a mixture of equal activities of the two enzymes, pI50=3.0 used where measured <4

`COc1cc(OC)nc(NC(=O)NS(=O)(=O)c2cc(NC=O)ccc2C(=O)N(C)C)n1` [Foramsulfuron, foramsulfuron] was tested, and the IC50 ([1]; measured, crude extract of E. coli expressed enzyme, read-out: pI50 P197S (converted)) was 100 nM, the “Resistance Factor P197S” value [1] was 16 and the IC50 ([2]; measured, crude extract of E. coli expressed enzyme, read-out: pI50 S653N (converted)) was 63.1 nM. The “Resistance Factor S653N” value ([2]; relative to WT, from measured pI50) was 10, the IC50 ([3]; measured, crude extract of E. coli expressed enzyme, read-out: pI50 W574L (converted)) was 50.1 µM and the “Resistance Factor W574L” value [3] was 7943. It also gave an IC50 [4] of 6.31 nM, a pest or weed control at 50 g/ha [5, 11] of 28% and a pest or weed control at 50 g/ha [6, 11] of 99%. For the same molecule, the “pI50 P197S & W574L” value [7, 12] was 5.6, the “Resistance Factor P197S & W574L” value [7] was 398 and the “pI50 S653N & W574L” value [8, 12] was 5.7. For the same molecule, the “Resistance Factor S653N & W574L” value [8] was 316, the “inhibition of ALS enzyme activity in leaves” value [9] was “inhibited at lower concentrations of the herbicides than in leaves comprising the mutant AHAS alleles” and the “tolerance of ALS activity in leaves by mutation” value ([10]; P197S (row II) compared with W574L (row III) and both (row I)) was “the tolerance in lines with the P197S mutation (row II) is lower than the tolerance in lines with the W574L mutation (row III) and with both the P197S and W574L mutation (row I)”.

For `COC(=O)c1csc(C)c1S(=O)(=O)NC(=O)n1nc(OC)n(C)c1=O` [Thiencarbazone-methyl, thiencarbazone-methyl], the “Resistance Factor P197S” value [1] was 1259, the “Resistance Factor W574L” value [3] was 1259 and the “% phytotox” value ([5]; AI dose rate 30 gai/ha) was 3%. For the same molecule, the “% phytotox” value ([6]; AI dose rate 30 gai/ha) was 100%, the “Resistance Factor P197S & W574L” value [7] was 1259 and the “Resistance Factor S653N & W574L” value [8] was 316. The “inhibition of ALS enzyme activity in leaves” value [9] was “inhibited at lower concentrations of the herbicides than in leaves comprising the mutant AHAS alleles” and the “herbicide tolerance of ALS activity in leaves, TCM compared with FS” value ([10]; mutant lines (rows I-III)) was “the herbicide tolerance is higher for TCM than for FS”.
